Structures are written as SMILES. ≈ marks a conversion by molar mass, not a printed value.

One test has as its system C. difficile BAA 1805. The test is described as follows: MIC against C. difficile BAA 1805. In kind it is cell-based. The note with it: Clostridioides difficile, BAA1805.
Take `CSC1O[C@H]([C@H](NC(=O)[C@H]2NC[C@H]3CC=CCO[C@H]32)[C@H](C)Cl)C(O)[C@@H](O)[C@H]1O` (stereo partly drawn) [FSA-507051]: the MIC was more than 32 µg/mL.

Another test relates to E. faecalis MMX 847 Macrolide-Resistant. Put plainly: MIC against E. faecalis MMX 847 Macrolide-Resistant. To be noted: Enterococcus faecalis. In kind it is cell-based.
In turn, `CSC1O[C@H]([C@H](NC(=O)[C@H]2NC[C@H]3CC=CCO[C@H]32)[C@H](C)Cl)C(O)[C@@H](O)[C@H]1O` (stereo partly drawn) [FSA-507051] yielded an MIC of more than 32 µg/mL.

The test system of the next test is S. pneumoniae MMX 3031 cMefA. The test is described as follows: MIC against S. pneumoniae MMX 3031 cMefA. It is filed as cell-based. To be noted: Streptococcus pneumoniae, MMX3031CMEFA.
In turn, `CSC1O[C@H]([C@H](NC(=O)[C@H]2NC[C@H]3CC=CCO[C@H]32)[C@H](C)Cl)C(O)[C@@H](O)[C@H]1O` (stereo partly drawn) [FSA-507051] registered an MIC of 1 µg/mL (≈ 2.29 µM).

For the next test, the system named is E. coli ATCC 25922. The test is described as follows: MIC against E. coli ATCC 25922. The note with it: Escherichia coli, ATCC25922. It is filed as cell-based.
Molecule `CSC1O[C@H]([C@H](NC(=O)[C@H]2NC[C@H]3CC=CCO[C@H]32)[C@H](C)Cl)C(O)[C@@H](O)[C@H]1O` (stereo partly drawn) [FSA-507051] yielded an MIC of more than 32 µg/mL.

The test system of another test is P. aeruginosa MMX Mex parent strain. The test is described as follows: MIC against P. aeruginosa MMX Mex parent strain. In kind it is cell-based. The note with it: Pseudomonas aeruginosa.
Consider `CSC1O[C@H]([C@H](NC(=O)[C@H]2NC[C@H]3CC=CCO[C@H]32)[C@H](C)Cl)C(O)[C@@H](O)[C@H]1O` (stereo partly drawn) [FSA-507051], for which the MIC was more than 32 µg/mL.

The test system of another test is S. aureus MMX 3035 cErmA. Put plainly: MIC against S. aureus MMX 3035 cErmA. In kind it is cell-based. The note with it: Staphylococcus aureus, MMX3035CERMA.
On to `CSC1O[C@H]([C@H](NC(=O)[C@H]2NC[C@H]3CC=CCO[C@H]32)[C@H](C)Cl)C(O)[C@@H](O)[C@H]1O` (stereo partly drawn) [FSA-507051], for which the MIC is more than 32 µg/mL.

In a further test the test system is S. pneumoniae MMX 3028 cErmB. Put plainly: MIC against S. pneumoniae MMX 3028 cErmB. To be noted: Streptococcus pneumoniae, MMX3028CERMB. In kind it is cell-based.
The molecule `CSC1O[C@H]([C@H](NC(=O)[C@H]2NC[C@H]3CC=CCO[C@H]32)[C@H](C)Cl)C(O)[C@@H](O)[C@H]1O` (stereo partly drawn) [FSA-507051] showed an MIC of more than 32 µg/mL.

The next test concerns P. aeruginosa MMX 3476 Δmex. The test is described as follows: MIC against P. aeruginosa MMX 3476 Δmex. The note with it: Pseudomonas aeruginosa. In kind it is cell-based.
In the case of `CSC1O[C@H]([C@H](NC(=O)[C@H]2NC[C@H]3CC=CCO[C@H]32)[C@H](C)Cl)C(O)[C@@H](O)[C@H]1O` (stereo partly drawn) [FSA-507051], the MIC was more than 32 µg/mL.

Another test deals with S. pyogenes ATCC 19615. Put plainly: MIC against S. pyogenes ATCC 19615. It is filed as cell-based. The note with it: Streptococcus pyogenes, ATCC19615.
In the case of `CSC1O[C@H]([C@H](NC(=O)[C@H]2NC[C@H]3CC=CCO[C@H]32)[C@H](C)Cl)C(O)[C@@H](O)[C@H]1O` (stereo partly drawn) [FSA-507051], the MIC was found to be 0.5 µg/mL (≈ 1.14 µM).

The next test has as its system E. faecalis ATCC 29212. Put plainly: MIC against E. faecalis ATCC 29212. It is filed as cell-based. To be noted: Enterococcus faecalis, ATCC29212.
In turn, `CSC1O[C@H]([C@H](NC(=O)[C@H]2NC[C@H]3CC=CCO[C@H]32)[C@H](C)Cl)C(O)[C@@H](O)[C@H]1O` (stereo partly drawn) [FSA-507051] displayed an MIC of more than 32 µg/mL.

In another test the test system is P. aeruginosa ATCC 27853. Put plainly: MIC against P. aeruginosa ATCC 27853. In kind it is cell-based. The note with it: Pseudomonas aeruginosa, ATCC27853.
Molecule `CSC1O[C@H]([C@H](NC(=O)[C@H]2NC[C@H]3CC=CCO[C@H]32)[C@H](C)Cl)C(O)[C@@H](O)[C@H]1O` (stereo partly drawn) [FSA-507051] returned an MIC of more than 32 µg/mL.

Another test relates to S. pyogenes MMX 946 Macrolide-Resistant. The test is described as follows: MIC against S. pyogenes MMX 946 Macrolide-Resistant. In kind it is cell-based. To be noted: Streptococcus pyogenes.
For `CSC1O[C@H]([C@H](NC(=O)[C@H]2NC[C@H]3CC=CCO[C@H]32)[C@H](C)Cl)C(O)[C@@H](O)[C@H]1O` (stereo partly drawn) [FSA-507051], the MIC is more than 32 µg/mL.

For the next test, the system named is E. coli MMX TolC parent strain. Put plainly: MIC against E. coli MMX TolC parent strain. In kind it is cell-based. The note with it: Escherichia coli.
Consider `CSC1O[C@H]([C@H](NC(=O)[C@H]2NC[C@H]3CC=CCO[C@H]32)[C@H](C)Cl)C(O)[C@@H](O)[C@H]1O` (stereo partly drawn) [FSA-507051], for which the MIC is more than 32 µg/mL.

Another test relates to H. influenzae ATCC 49247. Put plainly: MIC against H. influenzae ATCC 49247. To be noted: Haemophilus influenzae, ATCC49247; H. influenzae ATCC 49247; read-out: MIC. It is filed as cell-based.
`CSC1O[C@H]([C@H](NC(=O)[C@H]2NC[C@H]3CC=CCO[C@H]32)[C@H](C)Cl)C(O)[C@@H](O)[C@H]1O` (stereo partly drawn) [FSA-507051]: the MIC was determined as 6 µg/mL (≈ 13.7 µM).

The next test relates to S. pneumoniae ATCC 49619. The test is described as follows: MIC against S. pneumoniae ATCC 49619. It is filed as cell-based. The note with it: Streptococcus pneumoniae, ATCC49619; S. pneumoniae ATCC 49619; read-out: MIC.
As for `CSC1O[C@H]([C@H](NC(=O)[C@H]2NC[C@H]3CC=CCO[C@H]32)[C@H](C)Cl)C(O)[C@@H](O)[C@H]1O` (stereo partly drawn) [FSA-507051], the MIC came out at 1 µg/mL (≈ 2.29 µM).

The values above are taken from patent US20220073554A1, “LINCOSAMIDE ANTIBIOTICS AND USES THEREOF” (President and Fellows of Harvard College, priority 2017, published 2022).
